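Dose response: 5 concentrations. Exposure: 48 h. Format: 96-well plates. Endpoint: linear interpolation; highest concentration if not reached. GI50 = concentration required for 50% inhibition of growth.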 The source made the active and inactive calls. Rule as the data show it: active = GI50 up to about 1.1 µM and inactive = higher.
Key:
Experiment in all cases: NCI tumour cell line growth inhibition, 48 h
U-251 = system: U-251
DU-145 = system: DU-145
SW-620 = system: SW-620
IGROV-1 = system: IGROV-1
786-0 = system: 786-0
OVCAR-4 = system: OVCAR-4
Malme-3M = system: Malme-3M
RXF 393 = system: RXF 393
LOX IMVI = system: LOX IMVI
SK-MEL-5 = system: SK-MEL-5
SF-268 = system: SF-268
UACC-62 = system: UACC-62
A498 = system: A498
MDA-N = system: MDA-N
SK-OV-3 = system: SK-OV-3
COLO 205 = system: COLO 205
T47D = system: T47D
SNB-75 = system: SNB-75
SK-MEL-2 = system: SK-MEL-2
SN12C = system: SN12C

Measured: GI50

CCOC(=O)c1c(NS(=O)(=O)c2ccc(Br)cc2)sc2c1CCCC2
inactive: U-251 12.4 µM | DU-145 8 µM | SW-620 16.5 µM | IGROV-1 4.21 µM | 786-0 9.31 µM | OVCAR-4 30.1 µM | Malme-3M 12.9 µM | RXF 393 2.67 µM | LOX IMVI 13.6 µM | SK-MEL-5 7.29 µM | SF-268 3.72 µM | UACC-62 6.46 µM | A498 9.4 µM | MDA-N 13.8 µM | SK-OV-3 18.5 µM | COLO 205 13 µM | T47D 6.61 µM | SNB-75 4.11 µM | SK-MEL-2 5.85 µM | SN12C 6.14 µM

CN(C)C[C@H]1CC[C@@H](CN(C)C)C1=O
inactive: U-251 28.7 µM | DU-145 24.3 µM | SW-620 2.11 µM | IGROV-1 15.2 µM | 786-0 5.68 µM | OVCAR-4 9.23 µM | Malme-3M 3 µM | RXF 393 9.29 µM | LOX IMVI 7.14 µM | SK-MEL-5 11.6 µM | SF-268 11.2 µM | UACC-62 9.08 µM | A498 49.2 µM | MDA-N 8.55 µM | SK-OV-3 > 50 µM | COLO 205 3.67 µM | T47D 7.03 µM | SNB-75 14.5 µM | SK-MEL-2 7.73 µM | SN12C 8.59 µM

OC1(c2ccccc2)CC2CCC(C1)N2CCCC1(c2ccc(F)cc2)OCCO1 (stereo not given)
inactive: U-251 > 100 µM | DU-145 > 100 µM | SW-620 > 100 µM | IGROV-1 > 100 µM | 786-0 18.2 µM | OVCAR-4 > 100 µM | Malme-3M 98.4 µM | RXF 393 59.7 µM | LOX IMVI > 100 µM | SK-MEL-5 21.3 µM | SF-268 > 100 µM | UACC-62 > 100 µM | A498 > 100 µM | MDA-N > 100 µM | SK-OV-3 > 100 µM | COLO 205 69.8 µM | T47D > 100 µM | SNB-75 > 100 µM | SK-MEL-2 > 100 µM | SN12C > 100 µM

Oc1ccc(Br)cc1/C=N/c1cccc(C(F)(F)F)c1
inactive: U-251 6.89 µM | DU-145 36.8 µM | SW-620 24 µM | IGROV-1 6.24 µM | 786-0 30.4 µM | OVCAR-4 34.8 µM | Malme-3M 23.5 µM | RXF 393 > 100 µM | LOX IMVI 18.3 µM | SK-MEL-5 28.3 µM | SF-268 8.69 µM | UACC-62 25.1 µM | A498 > 100 µM | MDA-N 32.9 µM | SK-OV-3 45.7 µM | COLO 205 96.6 µM | T47D 19.9 µM | SNB-75 42.6 µM | SK-MEL-2 19.5 µM | SN12C 30.5 µM

C=C1C(=O)O[C@H]2[C@H]3O[C@@H](C[C@@H]12)[C@@]1(C)CC[C@H](O1)C(C)=CCC[C@H]3C
inactive: U-251 1.61 µM | DU-145 1.49 µM | SW-620 1.26 µM | IGROV-1 1.53 µM | 786-0 1.31 µM | OVCAR-4 1.59 µM | Malme-3M 1.75 µM | RXF 393 1.48 µM | LOX IMVI 1.52 µM | SK-MEL-5 1.49 µM | SF-268 1.45 µM | UACC-62 1.53 µM | A498 1.63 µM | MDA-N 1.53 µM | SK-OV-3 4.58 µM | COLO 205 1.81 µM | T47D 2.11 µM | SNB-75 1.73 µM | SK-MEL-2 1.93 µM | SN12C 1.65 µM

Cc1ncn(-c2ccccc2O)c1C
inactive: U-251 > 100 µM | DU-145 > 100 µM | SW-620 > 100 µM | IGROV-1 > 100 µM | 786-0 > 100 µM | OVCAR-4 > 100 µM | Malme-3M > 100 µM | RXF 393 > 100 µM | LOX IMVI > 100 µM | SK-MEL-5 74.8 µM | SF-268 > 100 µM | UACC-62 > 100 µM | A498 > 100 µM | MDA-N > 100 µM | SK-OV-3 > 100 µM | COLO 205 > 100 µM | T47D > 100 µM | SNB-75 > 100 µM | SK-MEL-2 > 100 µM | SN12C > 100 µM

CCOC(=O)/C(=C\NC(=S)Nc1ccc(Cl)c(Cl)c1)C(=O)c1ccccc1
inactive: U-251 37.2 µM | DU-145 > 100 µM | SW-620 39.2 µM | IGROV-1 33 µM | 786-0 58.6 µM | OVCAR-4 41.5 µM | Malme-3M 63.5 µM | RXF 393 21.6 µM | LOX IMVI 69.7 µM | SK-MEL-5 27.1 µM | SF-268 26.6 µM | UACC-62 32.3 µM | A498 3.94 µM | MDA-N 27.2 µM | SK-OV-3 36.2 µM | COLO 205 46 µM | T47D 7.82 µM | SNB-75 6.79 µM | SK-MEL-2 21.7 µM | SN12C 46.5 µM

— ChEMBL document CHEMBL1201862, “PubChem BioAssay data set” (2004)
